Assay results published in patent EP3275434A1, “AN EXTENDED RELEASE ORAL DOSAGE FORM” (SANDOZ AG, priority 2016, dated 2018).

Tests used:
[1] = blood plasma concentration of veliparib against time, immediate release 400 mg twice a day; assay type: in vivo; details: 10 x 40 mg twice a day, daily dose 800 mg
From the text: The term peak plasma concentration is Cmax in blood plasma observed after administration. The term trough plasma concentration is Cmin in blood plasma observed after administration and just prior to the administration of a subsequent dose in a given dosage regimen. The veliparib plasma concentration can be determined according to the approach described in Mostafa et al., Cancer Chemother Pharmacol (2014) 74: 583-591. Pharmacokinetic terms have the typical meaning as recognized in the art and in case of doubt are to be interpreted according to the European Pharmacopoeia Version 8.8.
The present inventors have realized that the In-vivo plasma concentration profile of veliparib when administered as immediate release dosage forms at 400 mg BID, can be such that the blood plasma fluctuations are quite high. […] Thus, undesireably high peak concentrations are obtained in order to keep the trough concentration above a therapeutic threshold. In contrast, the extended release dosage form of the present invention enables the provision of therapeutically effective trough concentrations at all times without attaining such a high peak concentration. Moreover, when the extended release dosage form of the present invention is administered twice daily, even an overall dose reduction can be obtained while at the same time keeping the through concentration above the therapeutic threshold.
In this experiment 10 tablets containing 40 mg veliparib each prepared in accordance with Comparative example 1 are administered twice a day, 12h apart, to meet a daily dose of 800 mg. A plot displaying the pharmacokinetic behaviour of veliparib is obtained by plotting the blood plasma concentration of veliparib against time (Figure 1). […] The Cmax/Cmin ratio for veliparib is almost 7.

[2] = cited from earlier work

- Cmax/Cmin ratio [1]: about 7
- Cmin [1]: around 0.5 µg/ml
- Cmax ([1]; plasma, po, 400 mg): ~3500 ng/mL
Structure (SMILES): C[C@]1(c2nc3c(C(N)=O)cccc3[nH]2)CCCN1 [veliparib, 2-((R)-2-Methylpyrrolidin-2-yl)-1H-benzimidazole-4-carboxamide]
- side effects reported ([2]; immediate release tablet at 2 x 400 mg per day): anemia, fatigue, nausea, pain and cough
- elimination half-life ([2]; in vivo): about 6 hours
